For test [1], the system named is U87MG, LN428 and LN827 GBM cells. The test is described as follows: TTFields-induced cytosolic micronuclei clusters with cGAS and AIM2 recruitment (immunofluorescence, confocal). In kind it is cell-based, human. The following applies: ribociclib 4.5 μM. How it is done: FIG. 1C, FIG. 1D, FIG. 1E, and FIG. 1F show exemplary confocal images with z stack showing immunofluorescent staining for cGAS, AIM2, and LAMINA/C with DAPI counter-staining in LN428 GBM cells that were pretreated with either the vehicle (FIG. 1C, FIG. 1E) or ribociclib (4.5 μM) (FIG. 1D, FIG. 1F) to induce G1 arrest, then non-treated (FIG. 1C, FIG. 1D) or treated with TTFields for 24 hours (FIG. 1E,
FIG. 1G provides an exemplary bar graph showing percentages of cells with large cytosolic micronuclei clusters with cGAS and AIM2 recruitment being dependent on TTFields in the 3 indicated GBM cell lines treated as described with respect to FIG. 1C, FIG. 1D, FIG. 1E, and FIG. 1F;
To address this question, cells were pretreated for 24 hours prior to and during a 24 hour exposure to TTFields with ribociclib, a potent inhibitor of cyclin-dependent kinases 4 and 6, to induce G1 arrest^31 (FIG. 1H).
Cells grown on cover slips were fixed with 4% paraformaldehyde for 30 min at 4° C., incubated overnight at 4° C. with different combinations of primary antibodies (dilution 1:500) against indicated antigens and then for 2 hours at room temperature with appropriate fluorochrome-conjugated secondary antibodies, (dilution 1:500). Labeled cells were counterstained with DAPI (Thermo Fisher, Cat #D1306) at 1 μgm/ml and images captured and analyzed, using a Zeiss 800 inverted confocal microscope. […]

In a further test the test system is LN428 cells. The test can be described thus: DNA content analysis by propidium iodide (PI) staining. It is filed as cell-based, human. To be noted: ribociclib 4.5 μM, 0 and 24 hours.

For `CN(C)C(=O)c1cc2cnc(Nc3ccc(N4CCNCC4)cn3)nc2n1C1CCCC1` [ribociclib], the “percentage of cells with cGAS and AIM2-recruited micronuclei clusters after TTFields, G1-arrested cells compared to cycling cells” value in test [1] (24 hours prior to and during 24 hour TTFields (200 kHz), all 3 lines) is recorded as “consistently decreased”. In addition, in test [1] (no TTFields), the “cluster formation, ribociclib treatment alone” value is on record as “did not increase”. Also, the G1-S arrest result in the test on LN428 cells was “effective G1-S arrest”.

Values taken from patent publication US20220267445A1, “Methods and Compositions for Determining Susceptibility to Treatment with Checkpoint Inhibitors” (Novocure GmbH, priority 2021, published 2022).
